For three molecules, IC50 and MIC results are on record in ChEMBL document CHEMBL5113373, “Tryptophan derived natural marine alkaloids and synthetic derivatives as promising antimicrobial agents” (Eur J Med Chem, 2021).

Converted amounts (≈) assume the structure as drawn.

Assay [1] deals with Escherichia coli. The assay is described as follows: Antibiofilm activity against Escherichia coli K12 ER2718 assessed as inhibition of biofilm formation incubated for 24 hrs by crystal violet method. It counts as functional, organism-based. Particulars: K12 ER2718, 24 h.
Assay [2] concerns Staphylococcus aureus. The assay can be described thus: Antibiofilm activity against Staphylococcus aureus ATCC 29213 assessed as inhibition of biofilm formation incubated for 24 hrs by crystal violet method. Format: functional, organism-based. Particulars: ATCC 29213, 24 h.
Assay [3] deals with Escherichia coli. The assay can be described thus: Antibacterial activity against Escherichia coli assessed as bacterial growth inhibition. Format: functional.
The next assay relates to Bacillus subtilis. The assay can be described thus: Antibacterial activity against Bacillus subtilis assessed as bacterial growth inhibition. It counts as functional, organism-based.
Assay [4] is described as follows: Inhibition of Methicillin-resistant Staphylococcus aureus pyruvate kinase assessed as measuring absorbance of NADH coupled to L-LDH using phospho enol pyruvate in presence of ADP by spectrophotometry.
In assay [5] the test system is Staphylococcus aureus. The assay can be described thus: Antimicrobial activity against methicillin-resistant Staphylococcus aureus assessed as microbial growth inhibition by broth microdilution method. Format: functional. For orientation: In broth dilution the organism is exposed to a series of concentrations in liquid medium.

Take `C=CC(C)(C)c1[nH]c2cc(Br)ccc2c1CCNC` [DESFORMYLFLUSTRABROMINE]: the IC50 in the assay on Escherichia coli [1] was found to be 174 µM; in the assay on Staphylococcus aureus [2] it was 70 µM.

Consider `CO[C@@H]1c2c[nH]c3ccc(O)c(c23)C(c2c[nH]c3ccc(O)cc23)=N[C@@H]1C(C)=O`, for which the minimal inhibitory concentration (MIC) in the assay with Escherichia coli [3] and in the assay on Bacillus subtilis was 41.1 µM (≈ 16 µg/mL) throughout.

For the molecule `O=C1NC[C@@H](c2c[nH]c3cc(Br)ccc23)N[C@H]1c1c[nH]c2cc(Br)ccc12` (relative stereo) [CIS-3,4-DIHYDROHAMACANTHIN B], the IC50 in assay [4] was 5.1 µM. Besides, the MIC with Staphylococcus aureus [5] was 0.016 µM (≈ 0.00781 µg/mL).

Broadly, the IC50 is the concentration that gives 50% inhibition. Usually MIC stands for the lowest concentration found to suppress growth.
